Experimental data from patent US5187074A, “Method of hydroxylation with ATCC 55086” (Merck & Co., Inc., priority 1992, dated 1993).

Biological target: T1, HIV protease (Human immunodeficiency virus type 1 group M subtype B, UniProt P12497)
T1 construct: HIV protease expressed in Escherichia coli; made in house; host or cells: Escherichia coli
Test: Assay for Inhibition of Recombinant HIV Protease (APRIN 2.1)
Format: biochemical
Conditions: pH 5.5, 60 min, 37° C.
Experimental: Assay for Inhibition of Recombinant HIV Protease (APRIN 2.1)
Inhibition studies were performed on the reaction of the HIV protease expressed in Escherichia coli with a tritiated peptide substrate [^3 H]-acetyl-Val-Ser-Gln-Asn-(beta-napthyl-Ala)-Pro-Ile-Val-Gln-Gly-Arg-Arg-NH2 (MW 1800). The two arginine residues at the carboxyl terminus give this peptide an overall positive charge at acidic pH and enable it to bind to the H^+ form of DOWEX AG-50W-X8 resin and similar resins.
Aliquots of 25 μl containing 6.0-8.0 nM HIV protease in assay buffer (100 mM sodium acetate, pH 5.5 and 0.1% BSA) are placed in assay tubes. The reaction is initiated by addition of 25 μl aliquots of 4.2 μM tritiated peptide substrate in 100 mM sodium acetate, pH 5.5. After incubation for 60 min at 37° C., the reaction is stopped with 100 μl of 5% H3 PO4, then analysed by application of column chromatography.

SMILES: CC(C)(C)OC(=O)N[C@@H](Cc1ccccc1)[C@@H](O)C[C@@H](Cc1ccc(OCCN2CCOCC2)cc1)C(=O)N[C@H]1c2ccccc2C[C@H]1O [L-689,502, N-(cis-2(R)-hydroxy-1(S) -indanyl)-5(S)-(1,1-dimethylethoxycarbonylamino)-4(S)-hydroxy-6-phenyl-2(R)-[(4-(2-(4-morpholinyl)ethoxy)phenyl)methyl]-hexanamide]
- inhibition at 0.000625 µg/mL (0.625 ng/ml, control): -2%
- inhibition at 0.00125 µg/mL (1.25 ng/ml, control): 21%
- inhibition at 0.0025 µg/mL (2.5 ng/ml, control): 54%
- inhibition at 0.005 µg/mL (5 ng/ml, control): 69%
- inhibition at 0.01 µg/mL (10 ng/ml, control): 86%

SMILES: CC(C)(CO)OC(=O)N[C@@H](Cc1ccccc1)[C@@H](O)C[C@@H](Cc1ccc(OCCN2CCOCC2)cc1)C(=O)N[C@H]1c2ccccc2C[C@H]1O [L-697,811]
- inhibition at 0.0116 µg/mL (11.6 ng/ml, major metabolite from culture S-29-145, read-out: APRIN 2.1 Act. (% Inhib.)): 92%
